US9476087B2, “Methods and compounds for detecting beta-lactamase activity” (Nanyang Technological University, priority 2008, dated 2016)

Experiments:
[1] = system: β-lactamase producing microorganisms; settings: Hakimelahi et al. 2005; cited from earlier work
[2] = system: β-lactam antibiotics resistant E. coli Bl21; experiment: Nitrocefin colorimetric assay in living bacteria; type: cell-based; settings: nitrocefin 8 μM
Method: (§1) FIG. 22 depicts a colorimetric measurement after mixing nitrocefin with different bacterial suspensions. 1: Nitrocefin solution (8 μM) only; 2: Nitrocefin (8 μM) mixed with wild type E. coli Bl21; 3: Nitrocefin (8 μM) mixed with β-lactam antibiotics resistant E. coli Bl21; 4: Nitrocefin (8 μM) mixed with clinical isolate K. pneumoniae (ATCC 700603) strains. […] There was no color difference between the Bla-encoded E. coli Bl21 and the K. pneumoniae strains.
(§2) Bacterial cells (˜10^8 cfu/mL) were suspended in 1 ml of PBS buffer (pH 7.4) which contained substrates under the room temperature. Nitrocefin solution (from Merck) was incubated with bacteria for further enzyme interactions. The final concentration was maintained at 8 μM, which was the same as the gold nanoparticles based enzymatic assay. After 20 mins interaction and followed by centrifugation, supernatant was applied for colorimetric image. The color change with different bacterial suspensions is depicted in FIG. 22.

[3] = system: clinical isolate K. pneumoniae (ATCC 700603); experiment: Nitrocefin colorimetric assay in living bacteria; type: cell-based; settings: nitrocefin 8 μM
Method: as §1, §2

wild type E. coli Bl21 = experiment: Nitrocefin colorimetric assay in living bacteria; type: cell-based; settings: nitrocefin 8 μM
Method: as §1, §2

[4] = system: CC(=O)NC1C(=O)N2C(C(=O)O)=C(CSc3ccc(CC(=O)NCCOCCOCCN)cc3)CSC12; experiment: purified protein, by the assay type; settings: other: 25° C., PBS pH 7.4, β-lactamase 5.0 nM, absorbance change at 650 nm
Method: The kinetic measurements were carried out at 25° C. in PBS (phosphate buffered saline) buffer at pH 7.4. The absorbance change at 650 nm was measured by means of a UV spectrophotometer.
The rate of enhancement in absorbance at 650 nm was applied to determine the kinetic properties of enzyme hydrolysis. The values of the kinetic parameters (Km and Kcat) were determined from the double-reciprocal plot of the hydrolysis rate versus substrate concentrations (Lineweaver-Burk plot, based on the Michaelis-Menten model).
The kinetic experiments were carried out at 25° C. in PBS buffer with pH 7.4. The absorbance change at 650 nm was measured using a UV spectrophotometer. […] The rate of enhancement in absorbance at 650 nm was applied to determine the kinetic properties of enzyme hydrolysis. The 9 values of the kinetic parameters (Km and Kcat) were determined from the double-reciprocal plot of the hydrolysis rate versus substrate concentrations (Lineweaver-Burk plot).

Compound: COC(=O)C1=C(C(=O)OC(Cl)(Cl)C(Cl)(Cl)OC(=O)C2=C(c3ccccc3)C[C@@H]3[C@@H](NC(=O)Cc4ccccc4)C(=O)N23)N2C(=O)[C@@H](NC(=O)Cc3ccccc3)[C@H]2C1 (relative stereo) [(5R,6S)-rel-7-oxo-6-[(phenylacetyl)amino]-1-azabicyclo[3.2.0]hept-2-ene-2,3-dicarboxylic acid 3-methyl 2-[1,1,2,2-tetrachloro-2-[[[(5R,6R)-7-oxo-3-phenyl-6-[(phenylacetyl)amino]-1-azabicyclo[3.2.0]hept-2-en-2-yl]carbonyl]oxy]ethyl]ester]
- activity against β-lactamase producing microorganisms [1]: excellent activity

Compound: O=C(Cc1cccs1)N[C@@H]1C(=O)N2C(C(=O)O)=C(/C=C/c3ccc([N+](=O)[O-])cc3[N+](=O)[O-])CS[C@H]12 [nitrocefin]
- color change of nitrocefin solution [2]: color change from yellow to pink
- color change of nitrocefin solution [3]: color change from yellow to pink
- color of nitrocefin solution (wild type E. coli Bl21): pink color was also detected

Compound: β-lactamase (Escherichia coli)
- Km [4]: 14.1 µM
- kcat [4]: 22.7 s⁻¹
